Read-outs that look alike come from different tables or passages of the source.
What was measured:
[1] = tested on: Plasmodium falciparum, FcM29-Cameroon strain (chloroquine-resistant); test: In vitro antimalarial activity, P. falciparum FcM29-Cameroon strain; format: cell-based; conditions: for IC50: Plasmodium falciparum, read-out: P. falc. IC50; for activity against P. falciparum (in words): FcM29-Cameroon strain
Description: (§1) Detailed protocols have been reported elsewhere.

[2] = tested on: Plasmodium falciparum, NF54 strain (chloroquine sensitive), IEF stage; test: In vitro antimalarial activity, P. falciparum NF54 strain; format: cell-based
Description: as §1

[3] = molecular target: Human farnesyltransferase (Homo sapiens, UniProt P49354+P49356); test: Anti-farnesyltransferase assay (human); format: biochemical; conditions: average of three assays; read-out: FTase (H) IC50
Description: as §1

[4] = molecular target: Trypanosoma brucei farnesyltransferase (Trypanosoma brucei, UniProt Q57U08+Q580J3); test: Anti-farnesyltransferase assay (T. brucei); format: biochemical
Description: as §1

[5] = tested on: Jurkat cells; test: Jurkat cell cytotoxicity assay, Annexin V-FITC/PI flow cytometry; format: cell-based, human; conditions: for mode of Jurkat cell death (Annexin V-FITC/PI): 100 μM, 24 h treatment, flow cytometry; for concentration at which toxicity towards Jurkat cells is apparent: 24 h
Procedure: In addition, by using propidium iodide (PI) as a probe, from the observation of treated cells having a significant loss of nuclear DNA in combination with ROS production it was concluded that both 1 and 2 were inducing apoptosis. […] For our assessment of the mechanism of cell death, we used the combination of Annexin V-FITC and PI stains to allow us to evaluate the ability of test compounds 1–6 to induce apoptosis or necrosis (or both) in Jurkat cells. After 24 h treatment in the presence of 100 μM of each test compound, cells were analyzed by flow cytometry to identify live (AnV^−/PI^−), apoptosing (AnV^+/PI^−), necrotic (AnV^−/PI^+) and late apoptotic (AnV^+/PI^+) cells.
Cells were resuspended in cRPMI at 1 × 10^6 cells/mL and 100 μL cells added to individual wells of a 96-well round bottom plate. Compounds were made up in DMSO to 10 mM for a stock solution. A ten-fold dilution series was made for each stock solution in cRPMI from 1 mM to 10 nM and 10 μL of each added to triplicate wells, for final concentrations of 100 μM to 1 nM, along with corresponding DMSO controls. The cells plus compounds were then incubated for 24 h at 37 °C. The cells were washed in ice-cold Annexin V binding buffer (200 mL PBS with 10 mM HEPES, 140 mM NaCl and 2.5 mM CaCl2). The cell pellets were labelled with 5 μL of Annexin V-FITC (BD Pharmingen) for 15 min at 4 °C. Cells were washed again with ice-cold Annexin V buffer and labelled with 10 μL of 5 μg/mL PI for 7 min at 4 °C. Cells were washed and resuspended in FACS buffer, and Annexin V/PI staining analysed using flow cytometry. Annexin V positive cells were undergoing apoptosis, while PI positive cells were necrotic. Double positive cells were dead, while double negative cells were live cells.

[6] = tested on: Jurkat cells; test: Intracellular ROS, DHR123 flow cytometry; format: cell-based, human; conditions: top test concentration of 100 μM, 30 min
Procedure: In the present study, the presence of ROS in Jurkat cells was determined using dihydrorhodamine 123 (DHR123), a cell permeable probe that becomes fluorescent when oxidized to rhodamine 123 in the presence of ROS [7]. Once the cells were loaded with DHR123, they were then treated with test compounds at a range of concentrations, and the mean fluorescent intensity determined by flow cytometry.
Cells were resuspended in HBSS at 1 × 10^6 cells/mL and 100 μL cells added to individual wells of a 96-well round bottom plate. DHR123 was added to the wells for a final concentration of 500 nM per well and cells incubated for 5 min to allow uptake of DHR123. Compounds were made up in DMSO to 10 mM for a stock solution. A ten-fold dilution series was made for each stock solution in HBSS from 1 mM to 10 nM and 10 μL of each added to triplicate wells, for final concentrations of 100 μM to 1 nM, along with corresponding DMSO controls. The assay was incubated at 37 °C for 30 min, and the cells were washed and resuspended in FACS buffer (PBS with 0.1% BSA and 0.2% sodium azide). Intracellular ROS was measured by flow cytometry analysis of DHR123 uptake.

[7] = tested on: human leukemia T cell line Jurkat; set-up: method as in PMID 15857147; conditions: standard cell viability assay; read-out: cytotoxicity towards Jurkat cells IC50; cited from earlier work
[8] = tested on: Jurkat cells; set-up: method as in PMID 15857147; conditions: relative to untreated cells; cited from earlier work
[9] = tested on: MDA-MB-435; test: NCI-60 five-dose in vitro cytotoxicity screening, MDA-MB-435; format: cell-based, human; conditions: NCI 5-dose testing
Description: as §1

[10] = tested on: MALME-3M; test: NCI-60 five-dose in vitro cytotoxicity screening, MALME-3M; format: cell-based, human; conditions: NCI 5-dose testing
Description: as §1

[11] = tested on: Pf K1 strain; set-up: method as in PMID 21958335; conditions: read-out: antimalarial activity IC50; cited from earlier work
[12] = FcM29-Cameroon strain (chloroquine-resistant), average of three assays
[13] = average of three assays, read-out: FTase (T. b.) IC50
[14] = NF54 strain (chloroquine sensitive), IEF stage, average of two independent assays, read-out: P. falc. IC50

Chain of Trypanosoma brucei farnesyltransferase (Q580J3 entry or part of it): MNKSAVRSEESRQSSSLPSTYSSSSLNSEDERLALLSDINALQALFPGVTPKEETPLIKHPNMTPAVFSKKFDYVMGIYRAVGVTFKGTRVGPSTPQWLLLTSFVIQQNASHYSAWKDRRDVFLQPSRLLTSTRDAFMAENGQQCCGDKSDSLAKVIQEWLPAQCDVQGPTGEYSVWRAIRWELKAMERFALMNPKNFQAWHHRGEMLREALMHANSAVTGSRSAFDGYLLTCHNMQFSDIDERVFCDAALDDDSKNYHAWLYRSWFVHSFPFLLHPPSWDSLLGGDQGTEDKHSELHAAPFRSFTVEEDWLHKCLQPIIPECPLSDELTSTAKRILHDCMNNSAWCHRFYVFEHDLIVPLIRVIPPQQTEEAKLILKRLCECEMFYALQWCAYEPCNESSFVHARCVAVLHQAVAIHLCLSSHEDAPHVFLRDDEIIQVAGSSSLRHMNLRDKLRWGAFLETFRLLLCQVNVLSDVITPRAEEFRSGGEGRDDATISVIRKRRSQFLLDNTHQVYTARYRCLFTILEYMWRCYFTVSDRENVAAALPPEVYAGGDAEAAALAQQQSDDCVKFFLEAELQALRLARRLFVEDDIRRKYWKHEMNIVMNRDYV
Chain of Trypanosoma brucei farnesyltransferase (Q57U08 entry or part of it): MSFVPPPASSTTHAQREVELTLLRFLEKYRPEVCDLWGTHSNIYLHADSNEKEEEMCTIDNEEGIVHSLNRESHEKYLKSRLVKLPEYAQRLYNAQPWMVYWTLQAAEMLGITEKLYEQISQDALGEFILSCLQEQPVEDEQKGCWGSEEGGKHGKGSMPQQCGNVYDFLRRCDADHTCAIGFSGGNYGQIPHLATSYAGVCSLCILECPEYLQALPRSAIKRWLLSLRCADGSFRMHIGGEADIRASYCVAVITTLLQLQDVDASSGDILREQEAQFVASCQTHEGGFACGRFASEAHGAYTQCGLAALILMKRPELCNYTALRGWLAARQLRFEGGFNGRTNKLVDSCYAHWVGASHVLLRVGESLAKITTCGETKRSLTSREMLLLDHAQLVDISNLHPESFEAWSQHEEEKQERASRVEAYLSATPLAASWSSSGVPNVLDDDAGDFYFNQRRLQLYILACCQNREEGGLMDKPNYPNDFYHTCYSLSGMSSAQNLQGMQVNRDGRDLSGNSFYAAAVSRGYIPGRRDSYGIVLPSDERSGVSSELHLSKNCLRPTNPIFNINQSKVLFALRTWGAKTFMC

Compound: CCN(CC)CCCC(C)Nc1ccnc2cc(Cl)ccc12 (centres unmarked) [Chloroquine, reference compound]
- IC50 [1]: 450 nM
- IC50 ([2]; NF54, read-out: P. falc. IC50): 6.3 nM

Compound: CC(C)=CCC/C(C)=C/Cc1cc(O)cc2c1OC(/C=C(\C)CCC=C(C)C)C1=C2C(=O)C2=C(C1=O)S(=O)(=O)CCN2 (centres unmarked) [Compound 1, thiaplidiaquinone A]
- IC50 [3]: 780 ± 170 nM
- activity against P. falciparum (in words) [1]: inactive
- IC50 [1, 12]: > 17000 nM
- IC50 [4, 13]: 740 ± 200 nM
- mode of Jurkat cell death (Annexin V-FITC/PI) [5]: inducing both necrosis (PI^+/AV^−) and apoptosis (PI^−/AV^+)
- concentration at which toxicity towards Jurkat cells is apparent [5]: ~100 µM
- accumulation of intracellular ROS (DHR123 fluorescence) [6]: only modest levels of accumulation of intracellular ROS
- IC50 [7]: ~3000 nM
- accumulation of intracellular ROS, % of cells [8]: 97%

Compound: CC(C)=CCC/C(C)=C/Cc1cc2c(cc1O)C1=C(C(=O)C3=C(NCCS3(=O)=O)C1=O)C(/C=C(\C)CCC=C(C)C)O2 (centres unmarked) [Compound 2, thiaplidiaquinone B]
- IC50 [3]: 1220 ± 68 nM
- activity against P. falciparum (in words) [1]: inactive
- IC50 [1, 12]: > 17000 nM
- IC50 [4, 13]: 3040 ± 300 nM
- mode of Jurkat cell death (Annexin V-FITC/PI) [5]: cell death almost exclusively via apoptosis
- concentration at which toxicity towards Jurkat cells is apparent [5]: ~100 µM
- accumulation of intracellular ROS (DHR123 fluorescence) [6]: only modest levels of accumulation of intracellular ROS
- IC50 [7]: ~3000 nM
- accumulation of intracellular ROS, % of cells [8]: 93%

Compound: CC(C)=CCC/C(C)=C/Cc1cc(O)cc2c1OC(/C=C(\C)CCC=C(C)C)C1=C2C(=O)C2=C(NCCS2(=O)=O)C1=O (centres unmarked) [Compound 3]
- IC50 [3]: 140 ± 1.7 nM
- GI50 ([9]; Homo sapiens): 52 nM
- LC50 ([9]; Homo sapiens): 660 nM
- TGI [9]: 180 nM
- GI50 ([10]; Homo sapiens): 100 nM
- LC50 ([10]; Homo sapiens): 3400 nM
- TGI [10]: 600 nM
- IC50 [1, 12]: 4560 ± 760 nM
- IC50 [4, 13]: 220 ± 34 nM
- mode of Jurkat cell death (Annexin V-FITC/PI) [5]: cell death by necrosis
- concentration at which toxicity towards Jurkat cells is apparent [5]: ~100 µM
- accumulation of intracellular ROS (DHR123 fluorescence) [6]: the most potent generator of intracellular ROS

Compound: CC(C)=CCC/C(C)=C/Cc1cc2c(cc1O)C1=C(C(=O)C3=C(C1=O)S(=O)(=O)CCN3)C(/C=C(\C)CCC=C(C)C)O2 (centres unmarked) [Compound 4]
- IC50 [3]: 54 ± 5 nM
- IC50 [1, 12]: 4390 ± 770 nM
- IC50 [4, 13]: 98 ± 8 nM
- mode of Jurkat cell death (Annexin V-FITC/PI) [5]: dominantly via apoptosis
- concentration at which toxicity towards Jurkat cells is apparent [5]: ~100 µM

Compound: CC(C)=CCC/C(C)=C/Cc1cc(O)cc2c1OC(/C=C(\C)CCC=C(C)C)C1=C2C(=O)C=CC1=O (centres unmarked) [Compound 5]
- IC50 [3]: 3700 ± 600 nM
- IC50 [4, 13]: 3900 ± 600 nM
- mode of Jurkat cell death (Annexin V-FITC/PI) [5]: dominated by late stage apoptosis (PI^+/AV^+)
- IC50 [2, 14]: 2200 nM

Compound: CC(C)=CCC/C(C)=C/Cc1cc2c(cc1O)C1=C(C(=O)C=CC1=O)C(/C=C(\C)CCC=C(C)C)O2 (centres unmarked) [Compound 6]
- IC50 [3]: 1640 ± 300 nM
- IC50 [4]: 6160 ± 1400 nM
- mode of Jurkat cell death (Annexin V-FITC/PI) [5]: dominated by late stage apoptosis (PI^+/AV^+)
- IC50 [2, 14]: 2300 nM

Compound: CSCC[C@H](NC(=O)c1ccc(NC[C@@H](N)CS)cc1-c1ccccc1)C(=O)O [FTI 276, reference compound]
- IC50 [4, 13]: 10 ± 2 nM

Compound: COC1=CC(=O)C2=C(C1=O)C(/C=C(\C)CCC=C(C)C)Oc1cc(OC)c(O)c(C/C=C(\C)CCC=C(C)C)c12 (centres unmarked) [scabellone B]
- IC50 [11]: 4800 nM
